Results as given in publication PMC11686366 (Nature Communications, 2024).

How the values were obtained:
[1] = system: thiamine transporters (SLC19A2 and SLC19A3); format: cell-based, human
human SLC19A2 = biological target: T1, human SLC19A2 (Homo sapiens, UniProt O60779); test: Microscale thermophoresis; format: binding; conditions: MST
T1 sequence (O60779 1-497): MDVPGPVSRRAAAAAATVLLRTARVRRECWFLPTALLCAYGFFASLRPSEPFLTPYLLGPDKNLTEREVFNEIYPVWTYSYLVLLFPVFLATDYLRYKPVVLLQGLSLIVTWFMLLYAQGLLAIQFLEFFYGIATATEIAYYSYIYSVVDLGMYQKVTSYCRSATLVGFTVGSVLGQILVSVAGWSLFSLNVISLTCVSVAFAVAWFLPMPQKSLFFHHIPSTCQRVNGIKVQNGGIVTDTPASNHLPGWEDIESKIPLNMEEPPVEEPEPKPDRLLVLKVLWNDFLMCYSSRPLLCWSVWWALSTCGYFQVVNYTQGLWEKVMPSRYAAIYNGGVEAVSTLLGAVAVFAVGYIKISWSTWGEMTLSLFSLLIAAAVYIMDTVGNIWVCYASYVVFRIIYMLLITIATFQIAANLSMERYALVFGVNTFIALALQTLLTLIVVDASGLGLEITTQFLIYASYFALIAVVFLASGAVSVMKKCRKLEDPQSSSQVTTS

human SLC19A3 = biological target: T2, human SLC19A3 (Homo sapiens, UniProt Q9BZV2); test: Microscale thermophoresis; format: binding; conditions: for Kd: MST
T2 sequence (Q9BZV2 1-496): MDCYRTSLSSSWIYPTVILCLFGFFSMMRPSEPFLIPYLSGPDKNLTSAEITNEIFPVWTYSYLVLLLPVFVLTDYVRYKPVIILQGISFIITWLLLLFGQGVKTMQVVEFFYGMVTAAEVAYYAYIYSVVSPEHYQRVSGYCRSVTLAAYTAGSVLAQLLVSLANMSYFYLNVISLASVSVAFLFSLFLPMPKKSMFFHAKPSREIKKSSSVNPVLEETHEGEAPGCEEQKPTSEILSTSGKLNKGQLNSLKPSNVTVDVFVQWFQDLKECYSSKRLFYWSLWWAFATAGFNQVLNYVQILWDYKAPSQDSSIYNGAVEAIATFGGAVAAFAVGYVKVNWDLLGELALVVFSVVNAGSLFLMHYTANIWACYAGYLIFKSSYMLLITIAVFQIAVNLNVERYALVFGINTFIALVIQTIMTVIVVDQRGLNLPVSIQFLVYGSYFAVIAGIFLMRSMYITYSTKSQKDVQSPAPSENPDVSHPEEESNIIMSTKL

[2] = pyridoxine, bipolar molecule; cited from earlier work

**Q.** For `CCN1CCN(Cc2ccc(Nc3ncc(F)c(-c4cc(F)c5nc(C)n(C(C)C)c5c4)n3)nc2)CC1` [abemaciclib], which “Inhibition of 3H-thiamine uptake (in words)” value (“Inhibition” for short) [1] is on record?
**A.** inhibitor

**Q.** Which “Inhibition” value [1] does the source give for `Cc1cc(C#N)cc(C)c1Oc1nc(Nc2ccc(C#N)cc2)nc(N)c1Br` [etravirine] here?
**A.** inhibitor

**Q.** For `N#CCNC(=O)c1ccc(-c2ccnc(Nc3ccc(N4CCOCC4)cc3)n2)cc1` [momelotinib], which “Inhibition” value [1] is on record?
**A.** inhibitory effects

**Q.** For `Cc1ncc(C[n+]2csc(CCO)c2C)c(N)n1` [thiamine], which Kd (human SLC19A2; pH 6.0) is on record?
**A.** ~1200 nM

**Q.** And the Kd (human SLC19A2; pH 7.5)?
**A.** ~78400 nM

**Q.** What about the Kd (human SLC19A3; pH 6.0) of the same compound?
**A.** ~250 nM

**Q.** What about the Kd (human SLC19A3; pH 7.5) of the same compound?
**A.** ~154000 nM

**Q.** With `CN(C)C(=N)N=C(N)N` [metformin] as the compound, how does the “Inhibition” value [1] read?
**A.** inhibitory effects

**Q.** What about the “Affinity (in words)” value (human SLC19A3; Supplementary Fig. 12 / 11b) of the same compound?
**A.** millimolar affinity

**Q.** Which “Inhibition” value [1] does the source give for `COc1cc(Cc2cnc(N)nc2N)cc(OC)c1OC` [trimethoprium] here?
**A.** inhibitory effects

**Q.** With `CCc1nc(N)nc(N)c1-c1ccc(Cl)cc1` [pyrimethamine] as the compound, how does the “Inhibition” value [1] read?
**A.** inhibitory effects

**Q.** For `Cc1ncc(CO)c(CO)c1O` [pyridoxine], which “pKa (lower value)” value [2] is on record?
**A.** 5.6

**Q.** For `CCCc1ncc(C[n+]2ccccc2C)c(N)n1` [amprolium], which “Inhibition” value [1] is on record?
**A.** inhibitory effects

**Q.** What about the Kd (human SLC19A3; pH 6.0) of the same compound?
**A.** ~450 nM

**Q.** Which “Inhibition” value [1] does the source give for `Cc1ncc(C[n+]2csc(CCO)c2C)c(=O)[nH]1` [oxythiamine] here?
**A.** inhibitory effects

**Q.** Which “Inhibition” value [1] does the source give for `Cc1cnc(Nc2ccc(OCCN3CCCC3)cc2)nc1Nc1cccc(S(=O)(=O)NC(C)(C)C)c1` [fedratinib] here?
**A.** inhibitory effects
